{
  "source": "patent US20250090510A1",
  "about": "“eIF4G1-eIF1 INHIBITORS AND USE THEREOF” (YEDA RESEARCH AND DEVELOPMENT CO. LTD., priority 2022, published 2025)",
  "test_system": "HEK293T cells",
  "test": "TCP-seq (translation complex profiling) of 48S footprints",
  "assay_type": "cell-based, human",
  "settings": "5 μM, one hour",
  "source_text": "FIGS. 9A-H: Inhibition of eIF1-eIF4G1 leads to 48S instability and scanning defect (9A) Polysome profiles of HEK293T cells treated with DMSO or i14G1-12 after crosslinking with formaldehyde, lysis and Rnase I digestion. The grey layer represents the fractions corresponding to the 40S ribosome used for the TCP-seq library preparation. (9B) Heatmap representing the log 2 mean of the relative number of reads mapping to the individual tRNAs in i14G1-12 over DMSO (n=3). The number of reads was normalized to the codon frequency in the human transcriptome. (9C) Volcano plot showing log 2 fold change (FC) of the abundance of each tRNAs comparing i14G1-12 over DMSO with FDR <0.05 and a log 2 FC threshold of 1. (9D) Histograms showing the relative number of reads mapping to mRNA in DMSO vs. i14G1-12. (9E) Metagene plots of normalized ribosome footprints (RPFs) counts on leader region. Numbers indicate the slope of the regression lines. (9F) Volcano plot showing log 2 fold change of the differential initiation analysis in i14G1-12 over DMSO. […] (9G) Bar chart of the relative number of reads mapping to each mRNA feature in DMSO and i14G-12.\nFIGS. 10A-J: Definition of leaky scanning and its regulation by specific mRNA features and eIF1-eIF4G1. (10A) Metagene plots of normalized ribosome footprints (RPFs) counts on CDS region. (10B) Scatter plot representing the leaky scanning score (LS) of transcripts in i14G1-12 versus DMSO. Transcripts with a significant LS (FDR <0.05) in DMSO and i14G1-12 are highlighted. […] (10D) Boxplots of the leaky scanning score in DMSO and in i14G1-12. […] (10F) Plot of the mean GC content in a 20 nt window around the start codon of leaky and non-leaky transcripts in DMSO and i14G1-12. (10G) Boxplot representing the log 5′ UTR length of leaky and non-leaky transcripts in DMSO and i14G1-12.\nHEK293T cells were grown to 90% confluence at 37° C. in a humidified incubator supplemented with 5% CO2. Cells were treated with DMSO or 5 μM i14G1-12 for 1 hour. After treatment, cells were directly removed from the incubator and treated with 0.15% formaldehyde for 10 min on ice with slow shaking. The reaction was stopped by adding 37.5 mM glycine for 5 minutes. Media was aspirated and the plates were washed with cold PBS. Cells were lysed with fresh lysis buffer (100 mM KCl, 20 mM Tris-HCl pH 8, 1.5 mM MgCl2, 1.5% (v/v) NP-40, 2 mM DTT) supplemented with protease inhibitor for 20 min in a cold room with slow agitation. Lysates were clarified by centrifugation at 20,000 g. RNA amount was quantified by nanodrop. 10% of the lysate was kept and snap freeze for total RNA extraction. Digestion was performed by the addition of 0.0075 U Rnase I per μg of RNA to the lysate for 30 min at room temperature. Digestion was stopped by adding a Super RNase inhibitor (ThermoFischer). Lysates were loaded onto a 5-45% sucrose gradient (100 mM KCl, 20 mM HEPES pH 7, 5 mM MgCl2, 2 mM DTT) and centrifuged at 39000 rpm for two hours and forty-five minutes in an SW41 rotor at 4° C. Gradients were analyzed through a UV lamp (254 nm) and an Absorbance detector while being fractionated in 250 μL fractions using a Foxy Junior Fraction Collector (Isco).\nRNA from the undigested extract and the sucrose gradient fractions corresponding to the 40S were extracted by addition of 1 mL or one volume of TRIzol respectively. Samples were heated at 65° C. for 15 minutes and vortexed every five minutes. Extraction was continued by addition of chloroform and alcohol precipitation of the aqueous phase. RNA-seq libraries were prepared with the TruSeq stranded RNA Library Prep (Illumina). TCP-seq libraries were prepared as described herein by selecting footprints reads with a length ranging from 16 nt to 85 nt. Libraries were sequenced at the iGE3 Genomic Platform (UNIGE) on a Hiseq 4000. […]",
  "data": [
    {"smiles": "Cn1ccnc1S/C(=C/C=C(C#N)C#N)c1ccc(Cl)cc1", "note": "[i14G1-12]", "values": [
      {"measurement": "iMet tRNA abundance in 48S fractions", "setting": "relative to DMSO", "result": "most downregulated tRNA"},
      {"measurement": "number of reads mapping to mRNAs", "setting": "relative to DMSO", "result": "significantly decreased"},
      {"measurement": "number of leaky genes (LS >3)", "setting": "DMSO n=637", "result": 1266, "unit": "genes"},
      {"measurement": "number of non-leaky genes (LS<−3)", "setting": "DMSO n=1223", "result": 325, "unit": "genes"},
      {"measurement": "number of downregulated differentially scanned genes", "setting": "log 2 FC threshold 1, FDR 0.05", "result": 476, "unit": "genes"},
      {"measurement": "number of upregulated differentially scanned genes", "setting": "log 2 FC threshold 1, FDR 0.05", "result": 10, "unit": "genes"}
    ]}
  ]
}
